Data from EP0773292A1, “Immortalised embryonic hippocampal cells and their use” (BAYER AG, priority 1995, dated 1997).
Like-named read-outs stand apart in the source and are kept apart here.

Experiments:
Format in all cases: cell-based, murine
[1] = tested on: HNMMCV13.1.E; assay: Ca2+-imaging (Fura-2), rise in intracellular calcium; conditions: HNMMCV13.1.E; glutamate 10µM to 10 mM, AMPA, kainic acid, serotonine, dopamine, carbachol up to 1mM, NMDA up to 500µM
Protocol: (§1) Fluorescent Probe: Dynamic changes of intracellular calcium concentration were measured using the Fura-2 fluorescent probe (Roe et al. 1990, Cell Calcium 11:63-73). This fluorescent dye was chosen because of its selectivity, high quantum yield and extinction co-efficient. Fura-2 permeates the living cell as a acetoxymethylester and becomes trapped within the cell after hydrolysis by intracellular esterases. The calcium-sensitive free acid of Fura-2 is able to bind to calcium ions inside the cell. Fura-2 has an excitation maximum at 380 nm and the Fura2/calcium complex peaks at 340 nm. A change in intracellular calcium concentration was calculated by recording fluorescent video images at wavelengths of 340nm and 380nm excitation and 510nm emission and by dividing the grey values of the digitized video images of 380nm from 340nm.
(§2) Loading cells with Fura-2: A stock solution with 2mM Fura-2-acetoxymethylester in dimethylsulfoxide (DMSO) was diluted to 5-10 µM with serum free Minimal Essential Medium (MEM, Gibco) containing 1.5% bovine serum albumin and 5 mM calcium chloride. The cells were incubated in a Falcon 96 well plate for 45-60 minutes at 37°C. Subsequently the cells were washed twice in N-(2-Hydroxyethyl)piperazine-N'-(2-ethanesulfonic acid) (HEPES, 5mM) buffered Tyrode solution (HEPES buffered salt solution containing 130 mM NaCl, 5 mM KCl, 2 mM CaCl2, 1 mM MgCl2, 5mM NaHCO3, 11 mM Glucose).
(§3) Imaging procedure: 100 µl of Tyrode buffer was added to the plate wells and the cells were sequencially exposed to light at 340 nm and 380 nm under a fluorescent microscope (Nikon Diaphot). The exposition time was 100 ms. A series of video images at 3 second intervals was acquired and stored as digitised pictures in the image boards of an image analysis computer (Leica, Quantimet 570). After the acquisition of 8 images the test substances were applied. The grey levels of the cells, which correspond to the fluorescence intensity, were measured in the recorded video images. The ratio was determined by dividing the measured grey levels of the "380 nm images" by the grey levels of the "340 nm images" either from averaged images or from individual cells. For averaged results, the grey levels were measured over the whole images.
(§4) The cells were loaded with Fura 2/AM between day 3 and 7 in culture. A number of agonists were tested for their ability to activate specific receptors on the cell surface which leads to a rise in intracellular calcium. The rise in calcium concentration in the cytoplasm can occur after activation of specific calcium channels in the cell membrane, after activation of neurotransmitter receptors directly coupled to ion channels that are permeable to calcium ions (i.e. NMDA or AMPA type glutamate receptors), or by activation of receptors, which propagate the signal through the activation of specific G-proteins, which regulate the activity of different enzymes in the interior of the cell (Connor, Cell Calcium 14 (1993), 185-200; Crouch and Hendry, Medical Res. Rev. 13 (1993), 105-123). The activation of phospholipase C generates the second messengers diacylglycerol and inositoltriphosphate from phospholipids in the cell membrane. The binding of inositoltriphosphate to receptors localised on internal vesicles which store calcium ions leads to a transient rise in the concentration of calcium ions in the cytoplasm (Berridge, M.J. 1993, Nature 361: 315-325).

[2] = tested on: HNMMCV13.1.F; assay: as above; conditions: for transient rise in intracellular calcium concentration: HNMMCV13.1.F, glutamate 10µM to 10 mM, AMPA, kainic acid, serotonine, dopamine, carbachol up to 1mM, NMDA up to 500µM
Protocol: as §1, §2, §3, §4

[3] = tested on: HNMMCV11.2.0; assay: as above; conditions: HNMMCV11.2.0; glutamate 10µM to 10 mM, AMPA, kainic acid, serotonine, dopamine, carbachol up to 1mM, NMDA up to 500µM
Protocol: as §1, §2, §3, §4

[4] = tested on: HNMMCV14.1.A; assay: as above; conditions: HNMMCV14.1.A; glutamate 10µM to 10 mM, AMPA, kainic acid, serotonine, dopamine, carbachol up to 1mM, NMDA up to 500µM
Protocol: as §1, §2, §3, §4

[5] = tested on: HC e/n XV.B cells; assay: as above
Protocol: as §1, §2, §3, §4

[6] = tested on: HC e/n XVB cells; assay: Electrophysiology: whole-cell patch-clamp, ligand-activated currents; conditions: for ligand-activated currents: membrane potential clamped to -70mV; for ligand induced inward currents: differentiated HC e/n XVB cells, AMPA 100µM, NMDA, kainate, glutamate 1mM
Protocol: (§5) Electrophysiological setup: Membrane currents were measured with the patch-clamp technique in the whole-cell recording configuration (Hamill et al. 1981, Pfluegers Arch. 391:85-100). Current signals were amplified with conventional electronics (EPC-9 amplifier, HEKA Elektronik GmbH, Lambrecht, Germany), filtered at 10kHz, and sampled at 5 kHz by an interface connected to an IBM AT-compatible computer system, which also served as a stimulus generator.
(§6) Solutions and electrodes: The standard bathing solution contained (in mM): Nacl 150, KCL 5, MgCl2 1.8, HEPES 5, and glucose 10. In some experiments an equimolar amount of NaCl was replaced by 5mM BaCl2. Recording pipettes had resistances about 5MΩ (Hilgenberg, Malsfeld, Germany). The pipettes contained (in mM): KCL 140, CaCl2 0.5, EGTA 5, MgCl2 2, and HEPES 10. The pH was adjusted to 7.4. In some experiments the pipette solution was designed to minimize the contribution of voltage-activated currents. In this case, investigating the ligand-activated currents, the pipette solution contained (in mM): CsCl 140, EGTA 10, and HEPES 10.
(§7) Ligands were dissolved in the extracellular saline solution and applied via an U-tube application system. To record ligand-induced currents, the membrane potential was clamped to -70mV. For measurements of voltage-activated currents, cells were held at -70mV and every second the membrane was stepped through a 50 msec. de- or hyperpolarising test pulse to a potential between -170 and +20 mV.

[7] = tested on: HNMMCV14.1.A; assay: as above; conditions: 14.1.A; membrane potential clamped to -70mV
Protocol: as §5, §6, §7

[8] = tested on: metabotropic glutamate receptor(s) (mGluR) expressed by HNMMCV14.1A cells; assay: Second messenger: phosphoinositide hydrolysis, accumulation of 3H-inositol phosphates
Protocol: Phosphoinositide hydrolysis was determined by measuring the accumulation of ^3H-inositol phosphates. The cells were plated in 48-well plates (Costar) at a density of 10000 cells per well and incubated for 4-5 days at 37°C, 7% CO2. Then the cells were labeled by incubation with 4 µCi of myo-2-^3H-inositol per ml medium (specific activity: […]: Amersham). After 24 h LiCl (10 mM final concentration) was added to the cells for 1 h. Agonists were then added at the concentrations indicated. The incubation was stopped after 1 h by replacing the medium with 200 µl ice-cold methanol. 400 µl of destilled water was added and the sample was directly applied to AG-1X8 ion exchange columns (AG-1X8 resin: BioRad). Free inositol and glycerophosphoryl-inositol were washed away with 16 ml destilled water followed by 10 ml 5 mM disodium-tetraborate, 60 mM sodium formate. Total ^3H-inositol phosphates (IP1, IP2, IP3) were eluted with 7 ml of 100 mM formic acid, 1 M ammonium formate. Radioactivity of the eluted ^3H-inositol phosphates was determined by liquid scintillation counting after addition of 13 ml liquid scintillation cocktail (Ultima Gold: Canberra Packard). Measurements were performed in triplicates for each experimental point. Untreated controls were set as 100% and the other values calculated in relation to this.
The columns were prepared as follows: 1 ml pipet tips were filled with one glass bead (Roth) per tip before adding 500 µl AG-1X8 resin. The resin was compressed with air and 270 µl seasand was applied. Until use they were stored at 4°C.

[9] = differentiated HC e/n XV.B cells
[10] = HC e/n XV.B cells, state of differentiation not given, up to 1mM
[11] = HNMMCV14.1A cells, result in words

| SMILES | transient rise in intracellular calcium concentration [1] | transient rise in intracellular calcium concentration [2] | transient rise in intracellular calcium concentration [3] | transient rise in intracellular calcium concentration [4] | ligand-activated currents ([6]; XV. B/ - EGF (differentiated)) | also measured |
| --- | --- | --- | --- | --- | --- | --- |
| N[C@H](C(=O)O)[C@H]1C[C@@H]1C(=O)O [L-CCG 1, L-carboxycyclopropylglycin] | strong | strong | strong | strong |  | transient rise in intracellular calcium concentration [5, 9]: weak signals |
| Cc1onc(O)c1CC(N)C(=O)O (stereo not shown) [AMPA, ∝-amino-3-hydroxy-5-methyl-4-isoxazol-propionic acid] | did not result in a transient rise in intracellular calcium concentrations | did not result in a transient rise in intracellular calcium concentrations | did not result in a transient rise in intracellular calcium concentrations | did not result in a transient rise in intracellular calcium concentrations | + (+: 10-30% positive cells) | transient rise in intracellular calcium concentration ([5]; undifferentiated HC e/n XV.B cells, AMPA, kainate up to 1mM, NMDA up to 500µM): did not result in a transient rise in intracellular calcium concentrations; ligand induced inward currents [6]: evoked responses with different peak amplitudes |
| N#Cc1cc2[nH]c(=O)c(=O)[nH]c2cc1[N+](=O)[O-] [CNQX, 6-nitro-7-cyanochinoxalin-2,3-dione] |  |  |  |  |  | antagonism of the calcium signals recorded after application of glutamate ([2]; glutamate 100µM, CNQX 100µM, cell clone taken from Table 5 (13.1.F)): not antagonised |
| NCCc1c[nH]c2ccc(O)cc12 [Serotonine] | did not lead to a specific signal | did not lead to a specific signal | did not lead to a specific signal | did not lead to a specific signal |  | transient rise in intracellular calcium concentration [5, 10]: did not lead to a specific signal |
| CC(=O)OCC[N+](C)(C)C [Acetylcholine, acetylcholine] |  |  |  |  | - | ligand-activated currents [7]: + (+: 10-30% positive cells) |
| NCCc1ccc(O)c(O)c1 [Dopamine, dopamine] | did not lead to a specific signal | did not lead to a specific signal | did not lead to a specific signal | did not lead to a specific signal |  | transient rise in intracellular calcium concentration [5, 10]: did not lead to a specific signal |
| NC(C(=O)O)c1cc(O)no1 (stereo not shown) [ibotenate] |  |  |  |  |  | effect on inositolphosphate accumulation [8]: concentration dependent increase; maximum responses (inositolphosphate accumulation) compared with glutamate [8]: slightly weaker |
| C[N+](C)(C)CCOC(N)=O [Carbachol] | not in any other cell line tested | not in any other cell line tested | not in any other cell line tested |  |  | transient rise in intracellular calcium concentration [5, 10]: reproducible signal |
| N[C@@]1(C(=O)O)CC[C@@H](C(=O)O)C1 [t-ACPD, 1S3R-aminocyclopentane-1,3-dicarboxylate] | strong | strong | strong | strong |  | transient rise in intracellular calcium concentration [5, 9]: weak signals; maximum responses (inositolphosphate accumulation) compared with glutamate ([8]; HNMMCV14.1A cells): slightly weaker; effect on inositolphosphate accumulation [8, 11]: concentration dependent increase |
| N[C@@H](Cn1oc(=O)[nH]c1=O)C(=O)O [Quisqualate, quisqualate] |  |  |  |  |  | maximum responses (inositolphosphate accumulation) compared with glutamate ([8]; HNMMCV14.1A cells): slightly weaker; effect on inositolphosphate accumulation [8, 11]: concentration dependent increase |
| NCCCC(=O)O [GABA] |  |  |  |  | +++ (+++: 70-100% positive cells) | reversal potential of the ligand-activated current ([6]; HC e/n XVB cells, membrane stepped from -100 to +40): ~+10 mV; ligand-activated currents ([6]; XV. B (with EGF, undifferentiated)): + (+: 10-30% positive cells); ligand induced inward currents [6]: prominent resonses; ligand-activated currents [7]: ++ (++: 30-70% positive cells) |
| CN[C@H](CC(=O)O)C(=O)O [NMDA, N-methyl-D-aspartate] |  |  |  |  | ++ (++: 30-70% positive cells) |  |
